# Source: the supplement of paper PMC10307832
# Legend:
# Experiment in all cases: relative viability (nuclei count vs DMSO), 5 days (fraction); higher = more cells survive
# [1] = test system: A-427
# Summary of the method: (§1)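 Cells from lung cancer lines were seeded into 1536-well plates and, one day later, dosed by pin tool. Treatments were either a single drug or a fixed dose of an anchor drug with five library-drug doses (not always all listed) in √10 steps. After 5 days, nuclei were stained in a one-step fixation (final 0.05% Triton X-100, 1% formaldehyde, 1 ug/ml Hoechst) and counted on 4× images, and relative viability is the treated-to-vehicle nuclei ratio, as the median of duplicate plates.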
# [2] = test system: HCC-15
# Summary of the method: as §1
# [3] = test system: HCC-78
# Summary of the method: as §1
# [4] = test system: HOP-62
# Summary of the method: as §1
# [5] = test system: LC-2-ad
# Summary of the method: as §1
# [6] = test system: LOU-NH91
# Summary of the method: as §1
# [7] = test system: LXF-289
# Summary of the method: as §1
# [8] = test system: NCI-H1734
# Summary of the method: as §1
# [9] = test system: NCI-H1755
# Summary of the method: as §1
# [10] = test system: NCI-H1792
# Summary of the method: as §1
# [11] = test system: NCI-H1915
# Summary of the method: as §1
# [12] = test system: NCI-H1975
# Summary of the method: as §1
# [13] = test system: NCI-H2126
# Summary of the method: as §1
# [14] = test system: NCI-H2342
# Summary of the method: as §1
# [15] = test system: NCI-H2347
# Summary of the method: as §1
# [16] = test system: NCI-H358
# Summary of the method: as §1
# [17] = test system: NCI-H460
# Summary of the method: as §1
# [18] = test system: NCI-H647
# Summary of the method: as §1
# [19] = test system: PC-3 [JPC-3]
# Summary of the method: as §1
# [20] = test system: RERF-LC-KJ
# Summary of the method: as §1
compound,measurement,setting,value
O=C(O)c1ccc(-c2c[nH]c3ncc(-c4ccccc4)cc23)cc1C1CCCC1 + NC(=O)Nc1cc(-c2cccc(F)c2)sc1C(=O)N[C@H]1CCCNC1 [AZD7762] (partner 0.2 µM),relative viability,[1]; first compound 0.04 µM,0.826
same,relative viability,[1]; first compound 0.1265 µM,0.911
same,relative viability,[1]; first compound 0.4 µM,0.893
same,relative viability,[1]; first compound 1.265 µM,0.726
same,relative viability,[2]; first compound 0.04 µM,1.22
same,relative viability,[2]; first compound 0.1265 µM,1.45
same,relative viability,[2]; first compound 0.4 µM,1.42
same,relative viability,[2]; first compound 1.265 µM,1.03
same,relative viability,[3]; first compound 0.1265 µM,0.734
same,relative viability,[3]; first compound 0.4 µM,0.779
same,relative viability,[3]; first compound 1.265 µM,0.712
same,relative viability,[4]; first compound 0.04 µM,0.618
same,relative viability,[4]; first compound 0.1265 µM,0.795
same,relative viability,[4]; first compound 0.4 µM,0.637
same,relative viability,[4]; first compound 1.265 µM,0.674
same,relative viability,[5]; first compound 0.04 µM,0.853
same,relative viability,[5]; first compound 0.1265 µM,0.926
same,relative viability,[5]; first compound 0.4 µM,0.835
same,relative viability,[5]; first compound 1.265 µM,0.812
same,relative viability,[6]; first compound 0.04 µM,0.818
same,relative viability,[6]; first compound 0.1265 µM,0.866
same,relative viability,[6]; first compound 0.4 µM,0.787
same,relative viability,[6]; first compound 1.265 µM,0.769
same,relative viability,[7]; first compound 0.04 µM,1.07
same,relative viability,[7]; first compound 0.1265 µM,1.25
same,relative viability,[7]; first compound 0.4 µM,1.02
same,relative viability,[7]; first compound 1.265 µM,0.922
same,relative viability,[8]; first compound 0.04 µM,0.534
same,relative viability,[8]; first compound 0.1265 µM,0.68
same,relative viability,[8]; first compound 0.4 µM,0.606
same,relative viability,[8]; first compound 1.265 µM,0.645
same,relative viability,[9]; first compound 0.04 µM,0.488
same,relative viability,[9]; first compound 0.1265 µM,0.521
same,relative viability,[9]; first compound 0.4 µM,0.547
same,relative viability,[9]; first compound 1.265 µM,0.523
same,relative viability,[10]; first compound 0.04 µM,0.673
same,relative viability,[10]; first compound 0.1265 µM,0.959
same,relative viability,[10]; first compound 0.4 µM,0.94
same,relative viability,[10]; first compound 1.265 µM,0.634
same,relative viability,[11]; first compound 0.04 µM,0.681
same,relative viability,[11]; first compound 0.1265 µM,0.64
same,relative viability,[11]; first compound 0.4 µM,0.77
same,relative viability,[11]; first compound 1.265 µM,0.764
same,relative viability,[12]; first compound 0.04 µM,0.738
same,relative viability,[12]; first compound 0.1265 µM,0.793
same,relative viability,[12]; first compound 0.4 µM,0.676
same,relative viability,[12]; first compound 1.265 µM,0.728
same,relative viability,[13]; first compound 0.04 µM,1.02
same,relative viability,[13]; first compound 0.1265 µM,1.11
same,relative viability,[13]; first compound 0.4 µM,1.08
same,relative viability,[13]; first compound 1.265 µM,1
same,relative viability,[14]; first compound 0.04 µM,0.41
same,relative viability,[14]; first compound 0.1265 µM,0.467
same,relative viability,[14]; first compound 0.4 µM,0.535
same,relative viability,[14]; first compound 1.265 µM,0.459
same,relative viability,[15]; first compound 0.04 µM,0.821
same,relative viability,[15]; first compound 0.1265 µM,0.935
same,relative viability,[15]; first compound 0.4 µM,0.797
same,relative viability,[15]; first compound 1.265 µM,0.878
same,relative viability,[16]; first compound 0.04 µM,0.494
same,relative viability,[16]; first compound 0.1265 µM,0.536
same,relative viability,[16]; first compound 0.4 µM,0.456
same,relative viability,[16]; first compound 1.265 µM,0.452
same,relative viability,[17]; first compound 0.04 µM,0.625
same,relative viability,[17]; first compound 0.1265 µM,0.822
same,relative viability,[17]; first compound 0.4 µM,0.886
same,relative viability,[17]; first compound 1.265 µM,0.794
same,relative viability,[18]; first compound 0.04 µM,0.437
same,relative viability,[18]; first compound 0.1265 µM,0.55
same,relative viability,[18]; first compound 0.4 µM,0.489
same,relative viability,[18]; first compound 1.265 µM,0.408
same,relative viability,[19]; first compound 0.04 µM,0.693
same,relative viability,[19]; first compound 0.1265 µM,0.967
same,relative viability,[19]; first compound 0.4 µM,0.806
same,relative viability,[19]; first compound 1.265 µM,0.766
same,relative viability,[20]; first compound 0.04 µM,0.569
same,relative viability,[20]; first compound 0.4 µM,1.06
same,relative viability,[20]; first compound 1.265 µM,0.935
